# Experimental data: patent US5994629A, “Positive selection” (priority 1991, dated 1999)
# Where two headings read alike, the source gives them in different places.
# How the values were obtained:
# potato stem segments = test: Carbohydrate sources, potato stem segments, 9 weeks; type: cell-based; details: 5 g/l, 9 weeks; for activity at 5000 µg/mL: Solanum tuberosum
# Excerpt: Similar results are observed with potato stem segments after 9 weeks of culturing.
# [1] = tested on: plant material transgenic for the mannose 6-phosphate isomerase gene; test: Selection on mannose together with phloridzin; type: cell-based; details: 0.5 g/l phloridzin
# Excerpt: The transformed plant material is transgenic for the mannose 6-phosphate isomerase gene. After 21 days the selected shoots are harvested. […] Example 29 is repeated except that MOG is substituted by phloridzin. […] This is an example of how cross feeding and the production of escapers can be minimized by the addition of a carbohydrate transport inhibitor.
# [2] = mannose 5.0 g/l, first '+ Sucrose' column
# [3] = mannose 5.0 g/l, second '+ Sucrose' column
# [4] = mannose 7.5 g/l, first '+ Sucrose' column
# [5] = mannose 7.5 g/l, second '+ Sucrose' column
# [6] = mannose 10.0 g/l, first '+ Sucrose' column
# [7] = mannose 10.0 g/l, second '+ Sucrose' column
# [8] = mannose 12.5 g/l, first '+ Sucrose' column
# [9] = mannose 15.0 g/l, first '+ Sucrose' column
structure (smiles),measurement,setting,value
O=C(CO)[C@@H](O)[C@H](O)CO [D-xylulose],# of Shoots per explant,potato stem segments,2.2
same,activity at 5000 µg/mL,potato stem segments; read-out: Size % of control,74%
same,activity at 5000 µg/mL,potato stem segments; read-out: explants alive % of control,58%
"O=C(CCc1ccc(O)cc1)c1c(O)cc(O)cc1O[C@@H]1O[C@H](CO)[C@@H](O)[C@H](O)[C@H]1O [Phloridzin, phloridzin]",GUS+ Shoots/Expl.,[1]; [2],1.2
same,GUS+ Shoots/Sel. Shoots,[1]; [2],94.0%
same,GUS+ Shoots/Expl.,[1]; [3],0.08
same,GUS+ Shoots/Sel. Shoots,[1]; [3],100.0%
same,GUS+ Shoots/Expl.,[1]; [4],0.5
same,GUS+ Shoots/Sel. Shoots,[1]; [4],88.0%
same,GUS+ Shoots/Expl.,[1]; [5],0.5
same,GUS+ Shoots/Sel. Shoots,[1]; [5],78.5%
same,GUS+ Shoots/Expl.,[1]; [6],0.5
same,GUS+ Shoots/Sel. Shoots,[1]; [6],100.0%
same,GUS+ Shoots/Expl.,[1]; [7],0.5
same,GUS+ Shoots/Sel. Shoots,[1]; [7],95%
same,GUS+ Shoots/Expl.,[1]; [8],0.03
same,GUS+ Shoots/Sel. Shoots,[1]; [8],100%
same,GUS+ Shoots/Expl.,"[1]; mannose 12.5 g/l, second '+ Sucrose' column",0.0
same,GUS+ Shoots/Expl.,[1]; [9],0.03
same,GUS+ Shoots/Sel. Shoots,[1]; [9],100%
same,GUS+ Shoots/Expl.,"[1]; mannose 15.0 g/l, second '+ Sucrose' column",0.0
